By Kd is commonly meant the constant that tells how readily two partners part at equilibrium.

The source of these data is paper PMC6527550, “Discovery of processive catalysis by an exo-hydrolase with a pocket-shaped active site” (Nature Communications, 2019).

The target of assay [1] is native HvExoI (Hordeum vulgare, UniProt Q9XEI3). Put plainly: Inhibition kinetics (Ki) with 4-nitrophenyl β-D-glucopyranoside substrate. Format: biochemical, barley (Hordeum vulgare). As to conditions: for ΔG: calculated from Ki; for ΔG / Ki: native HvExoI; for Ki: inhibition kinetics, 4-nitrophenyl β-D-glucopyranoside substrate, 30 °C, pH 5.25. Here is the method:
Ki values of deoxy-glucose and alkyl β-D-glucoside derivatives, and G2SG-OMe with native HvExoI were derived from hydrolytic rates. Enzyme inactivation was monitored at 30 °C by incubating […] of the enzyme in 100 mM sodium acetate buffer, pH 5.25, containing 0.8–6.6 mM 4NPGlc as a substrate, 160 μg/ml BSA, and 3dGlc, 4dGlc, octyl-O-Glc, octyl-S-Glc and G2SG-OMe. Each inhibitor was tested at six concentrations at 0.4–3 times the Ki values in duplicate. We used the v = Vmax S / [KM × (1 + I/Ki) + S] equation to calculate Ki constant; Ki is defined as a dissociation constant of the enzyme-inhibitor complex. The enzyme activity was monitored at 410 nm and Dixon plots were used to determine Ki under the pseudo-first-order rate limiting conditions by a non-linear regression analysis, as described previously.

For assay [2], the target named is recombinant HvExoI (Hordeum vulgare, UniProt Q9XEI3). Put plainly: Steady-state affinity binding by Surface Plasmon Resonance. Details: species or system barley (Hordeum vulgare). As to conditions: for ΔG: calculated from KD. Here is the method:
Interaction between recombinant HvExoI and analytes Glc (molecular mass 180.2 g), G6SG-OMe (372.4 g) and PEG (n = 5–10); (380–420 g) were performed using Surface Plasmon Resonance (SPR) at 25 °C using the Biacore X100 V2.0.1 instrument (GE Healthcare, USA) equipped with the plus package. Purified recombinant HvExoI at 99% homogeneity (detected by SDS-PAGE) was covalently attached to a CM5 chip (GE Healthcare) in 10 mM sodium acetate buffer, pH 5.0. The carboxymethyl groups present on the dextran layer of the CM5 chip were activated with 1-ethyl-3-(3-dimethylaminopropyl) carbodiimide hydrochloride (EDC) and N-hydroxysuccinimide (NHS) (GE Healthcare). Any unoccupied reactive sites were blocked by a 7 min injection of 1 M ethanolamine hydrochloride-NaOH, pH 8.5. A ligand density of ~15.000 RU of recombinant HvExoI was achieved. Due to the fast rate constants of interactions, it was impossible to obtain individual rate constants ka and kd. […] For each interaction serial dilutions of analytes covering the 10 · KD − 0.1 · KD concentration ranges were prepared in 10 mM HEPES-NaOH buffer, pH 7.4 with 150 mM NaCl. Samples were injected onto the surface of a chip at a rate of 30 µl/min for 90 s, after which the formed enzyme/analyte complexes could dissociate for 90 s. As all analytes dissociated completely from the surface of the recombinant enzyme immobilised on a chip, no regeneration steps were needed. All responses were double referenced using a blank-immobilised reference surface (NHS + EDC-activated/deactivated) and a series of blank injections conducted to account for the system and injection artefacts. For each analyte at least one concentration was injected in duplicate. Triplicate experiments were performed, and the double-referenced data were globally fitted using a 1:1 equilibrium interaction model and the Biacore T200 v2.0 analysis software (GE Healthcare). Steady-state affinity binding constants KD (Supplementary Fig. 3) were calculated 30 s after the onset of injections using a 5 s window in an average response in the fit.

Read-outs that look alike come from different tables or passages of the source.

Sequence of recombinant HvExoI (Q9XEI3 entry or part of it): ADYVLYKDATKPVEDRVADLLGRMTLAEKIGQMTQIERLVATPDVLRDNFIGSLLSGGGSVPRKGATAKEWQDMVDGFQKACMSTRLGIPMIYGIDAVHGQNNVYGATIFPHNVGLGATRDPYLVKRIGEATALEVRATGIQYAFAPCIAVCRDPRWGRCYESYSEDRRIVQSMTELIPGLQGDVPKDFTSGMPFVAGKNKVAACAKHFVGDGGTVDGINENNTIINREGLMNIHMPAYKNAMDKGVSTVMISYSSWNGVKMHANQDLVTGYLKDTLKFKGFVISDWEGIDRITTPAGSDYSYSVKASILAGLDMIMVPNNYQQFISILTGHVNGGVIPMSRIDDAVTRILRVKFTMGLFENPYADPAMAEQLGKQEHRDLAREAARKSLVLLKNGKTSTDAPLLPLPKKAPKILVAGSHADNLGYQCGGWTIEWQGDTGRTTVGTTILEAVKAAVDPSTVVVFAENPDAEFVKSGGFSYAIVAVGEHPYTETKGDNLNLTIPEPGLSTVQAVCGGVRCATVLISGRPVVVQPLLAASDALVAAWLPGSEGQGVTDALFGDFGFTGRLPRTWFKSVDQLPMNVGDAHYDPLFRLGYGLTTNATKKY
Sequence of native HvExoI (Q9XEI3 entry or part of it): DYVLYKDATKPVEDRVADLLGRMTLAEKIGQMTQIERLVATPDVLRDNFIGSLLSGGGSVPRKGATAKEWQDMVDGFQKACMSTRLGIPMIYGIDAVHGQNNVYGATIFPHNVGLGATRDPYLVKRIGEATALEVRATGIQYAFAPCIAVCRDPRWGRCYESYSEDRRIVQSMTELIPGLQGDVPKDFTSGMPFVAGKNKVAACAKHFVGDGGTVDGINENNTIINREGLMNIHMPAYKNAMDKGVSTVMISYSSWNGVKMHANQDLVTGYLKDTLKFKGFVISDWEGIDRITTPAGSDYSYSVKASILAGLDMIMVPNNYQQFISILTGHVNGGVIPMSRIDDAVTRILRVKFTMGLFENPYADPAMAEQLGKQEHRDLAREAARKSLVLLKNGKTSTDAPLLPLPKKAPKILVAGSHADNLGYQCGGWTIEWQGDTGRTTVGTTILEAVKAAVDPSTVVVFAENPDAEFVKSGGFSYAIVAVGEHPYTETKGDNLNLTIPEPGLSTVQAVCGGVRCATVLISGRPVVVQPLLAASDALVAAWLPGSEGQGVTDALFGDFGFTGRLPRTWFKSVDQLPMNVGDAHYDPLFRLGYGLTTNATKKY

As for `O=C[C@H](O)C[C@H](O)[C@H](O)CO` [3dGlc, 3-deoxy-glucose], in assay [1], the ΔG is -11.7 kJ/mol and the Ki stood at 9800 µM.
`O=C[C@H](O)[C@@H](O)C[C@H](O)CO` [4dGlc, 4-deoxy-glucose]: in assay [1], the ΔG is -11.8 kJ/mol and the Ki turned out to be 9400 µM.
On to `CO[C@@H]1O[C@H](CO)[C@@H](O)[C@H](O)[C@H]1S[C@@H]1O[C@H](CO)[C@@H](O)[C@H](O)[C@H]1O` [G2SG-OMe, methyl 2-S-β-D-glucopyranosyl-2-thio-β-D-glucopyranoside], for which the “fold weaker binding than G6SG-OMe” value in assay [1] (Ki of G2SG-OMe compared with KD of G6SG-OMe) is listed as “about 320 fold”. Further, in assay [1], the ΔG was -15.1 kJ/mol and the Ki turned out to be 2550 µM.
Take `CO[C@@H]1O[C@H](CS[C@@H]2O[C@H](CO)[C@@H](O)[C@H](O)[C@H]2O)[C@@H](O)[C@H](O)[C@H]1O` [G6SG-OMe, methyl 6-S-β-D-glucopyranosyl-6-thio-β-D-glucopyranoside]: the ΔG in assay [2] (recombinant HvExoI) was -29.1 kJ/mol. The Kd in assay [2] (steady-state affinity, Surface Plasmon Resonance, recombinant HvExoI, 25 °C, read-out: KD) was determined as 8 µM.
In the case of `OC[C@H]1OC(O)[C@H](O)[C@@H](O)[C@@H]1O` (stereo partly drawn) [Glc], the Kd in assay [2] amounted to 160 µM. Further, in assay [2] (recombinant HvExoI), the ΔG was -21.7 kJ/mol.
For the compound `CCCCCCCCO[C@@H]1O[C@H](CO)[C@@H](O)[C@H](O)[C@H]1O` [Octyl-O-Glc, n-octyl β-D-glucopyranoside], in assay [1], the ΔG was -22.6 kJ/mol and the Ki is 130 µM.
In the case of `CCCCCCCCS[C@@H]1O[C@H](CO)[C@@H](O)[C@H](O)[C@H]1O` [Octyl-S-Glc, n-octyl 1-thio-β-D-glucopyranoside], in assay [1], the ΔG was -17.2 kJ/mol and the Ki came out at 1100 µM.
